Source: ChEMBL document CHEMBL4396913, “Synthesis and biological evaluation of hybrid quinolone-based quaternary ammonium antibacterial agents” (Eur J Med Chem, 2019)
Converted amounts (≈) assume the structure as drawn.

How the values were obtained:
[1] = Lipophilicity, log k of the compound at 100 ug/ml by micellar electrokinetic chromatography; assay type: physicochemical
[2] = test system: Staphylococcus aureus; assay: Antibacterial activity against Staphylococcus aureus ATCC 6538 cultured in MH medium assessed as reduction in bacterial growth incubated for 48 hrs by microbroth dilution method; assay type: functional; conditions: ATCC 6538, 48 h
[3] = test system: Staphylococcus aureus; assay: Bactericidal activity against Staphylococcus aureus ATCC 6538 cultured in MH medium assessed as reduction in bacterial survival incubated for 48 hrs by microbroth dilution method; assay type: functional; conditions: ATCC 6538, 48 h
[4] = test system: Staphylococcus aureus; assay: Antibacterial activity against methicillin resistant Staphylococcus aureus N315 cultured in MH medium assessed as reduction in bacterial growth incubated for 48 hrs by microbroth dilution method; assay type: functional; conditions: N315, 48 h
[5] = test system: Staphylococcus aureus; assay: Bactericidal activity against methicillin resistant Staphylococcus aureus N315 cultured in MH medium assessed as reduction in bacterial survival incubated for 48 hrs by microbroth dilution method; assay type: functional; conditions: N315, 48 h
[6] = test system: Staphylococcus epidermidis; assay: Antibacterial activity against Staphylococcus epidermidis ATCC 14990 cultured in MH medium assessed as reduction in bacterial growth incubated for 48 hrs by microbroth dilution method; assay type: functional; conditions: ATCC 14990, 48 h
[7] = test system: Staphylococcus epidermidis; assay: Bactericidal activity against Staphylococcus epidermidis ATCC 14990 cultured in MH medium assessed as reduction in bacterial survival incubated for 48 hrs by microbroth dilution method; assay type: functional; conditions: ATCC 14990, 48 h
[8] = test system: Enterococcus hirae; assay: Antibacterial activity against Enterococcus hirae ATCC 1052 cultured in BHI medium assessed as reduction in bacterial growth incubated for 48 hrs by microbroth dilution method; assay type: functional; conditions: ATCC 1052, 48 h
[9] = test system: Enterococcus hirae; assay: Bactericidal activity against Enterococcus hirae ATCC 1052 cultured in BHI medium assessed as reduction in bacterial survival incubated for 48 hrs by microbroth dilution method; assay type: functional; conditions: ATCC 1052, 48 h
[10] = test system: Bacillus spizizenii; assay: Antibacterial activity against Bacillus subtilis ATCC 6633 cultured in MH medium assessed as reduction in bacterial growth incubated for 48 hrs by microbroth dilution method; assay type: functional; conditions: ATCC 6633, 48 h
[11] = test system: Bacillus spizizenii; assay: Bactericidal activity against Bacillus subtilis ATCC 6633 cultured in MH medium assessed as reduction in bacterial survival incubated for 48 hrs by microbroth dilution method; assay type: functional; conditions: ATCC 6633, 48 h
[12] = test system: Escherichia coli; assay: Antibacterial activity against Escherichia coli ATCC 8739 cultured in MH medium assessed as reduction in bacterial growth incubated for 48 hrs by microbroth dilution method; assay type: functional; conditions: ATCC 8739, 48 h
[13] = test system: Escherichia coli; assay: Bactericidal activity against Escherichia coli ATCC 8739 cultured in MH medium assessed as reduction in bacterial survival incubated for 48 hrs by microbroth dilution method; assay type: functional; conditions: ATCC 8739, 48 h
[14] = test system: Pseudomonas aeruginosa; assay: Antibacterial activity against Pseudomonas aeruginosa ATCC 9027 cultured in MH medium assessed as reduction in bacterial growth incubated for 48 hrs by microbroth dilution method; assay type: functional; conditions: ATCC 9027, 48 h
[15] = test system: Pseudomonas aeruginosa; assay: Bactericidal activity against Pseudomonas aeruginosa ATCC 9027 cultured in MH medium assessed as reduction in bacterial survival incubated for 48 hrs by microbroth dilution method; assay type: functional; conditions: ATCC 9027, 48 h
[16] = test system: Proteus vulgaris; assay: Antibacterial activity against Proteus vulgaris NCTC 4635 cultured in MH medium assessed as reduction in bacterial growth incubated for 48 hrs by microbroth dilution method; assay type: functional; conditions: NCTC 4635, 48 h
[17] = test system: Proteus vulgaris; assay: Bactericidal activity against Proteus vulgaris NCTC 4635 cultured in MH medium assessed as reduction in bacterial survival incubated for 48 hrs by microbroth dilution method; assay type: functional; conditions: NCTC 4635, 48 h
[18] = test system: Staphylococcus aureus; assay: Antibacterial activity against methicillin resistant Staphylococcus aureus 6347 cultured in MH medium assessed as reduction in bacterial growth incubated for 48 hrs by microbroth dilution method; assay type: functional; conditions: Staphylococcus aureus, 6347, 48 h
[19] = test system: Staphylococcus aureus; assay: Bactericidal activity against methicillin resistant Staphylococcus aureus 6347 cultured in MH medium assessed as reduction in bacterial survival incubated for 48 hrs by microbroth dilution method; assay type: functional; conditions: Staphylococcus aureus, 6347, 48 h
[20] = test system: Staphylococcus epidermidis; assay: Antibacterial activity against methicillin resistant Staphylococcus epidermidis ATCC 13199 cultured in MH medium assessed as reduction in bacterial growth incubated for 48 hrs by microbroth dilution method; assay type: functional; conditions: ATCC 13199, 48 h
[21] = test system: Staphylococcus epidermidis; assay: Bactericidal activity against methicillin resistant Staphylococcus epidermidis ATCC 13199 cultured in MH medium assessed as reduction in bacterial survival incubated for 48 hrs by microbroth dilution method; assay type: functional; conditions: ATCC 13199, 48 h
[22] = test system: Streptococcus pneumoniae; assay: Antibacterial activity against Streptococcus pneumoniae cultured in MH medium assessed as reduction in bacterial growth incubated for 48 hrs by microbroth dilution method; assay type: functional
[23] = test system: Streptococcus pneumoniae; assay: Bactericidal activity against Streptococcus pneumoniae cultured in MH medium assessed as reduction in bacterial survival incubated for 48 hrs by microbroth dilution method; assay type: functional
[24] = test system: Serratia marcescens; assay: Antibacterial activity against Serratia marcescens ATCC 12795 cultured in MH medium assessed as reduction in bacterial growth incubated for 48 hrs by microbroth dilution method; assay type: functional; conditions: ATCC 12795, 48 h
[25] = test system: Serratia marcescens; assay: Bactericidal activity against Serratia marcescens ATCC 12795 cultured in MH medium assessed as reduction in bacterial survival incubated for 48 hrs by microbroth dilution method; assay type: functional; conditions: ATCC 12795, 48 h
[26] = test system: Pseudomonas aeruginosa; assay: Antibiofilm activity against Pseudomonas aeruginosa ATCC 9027 assessed as biofilm formation at antibacterial MIC incubated for 24 hrs compound added prior to bacterial biofilm formation by total biomass crystal violet staining-based method relative to control; assay type: functional
[27] = test system: Staphylococcus aureus; assay: Antibiofilm activity against Staphylococcus aureus ATCC 6538 assessed as biofilm formation at antibacterial MIC incubated for 24 hrs compound added prior to bacterial biofilm formation by total biomass crystal violet staining-based method relative to control; assay type: functional
[28] = test system: Pseudomonas aeruginosa; assay: Antibiofilm activity against Pseudomonas aeruginosa ATCC 9027 assessed as biofilm formation at 0.5 times antibacterial MIC incubated for 24 hrs compound added prior to bacterial biofilm formation by total biomass crystal violet staining-based method relative to control; assay type: functional
[29] = test system: Staphylococcus aureus; assay: Antibiofilm activity against Staphylococcus aureus ATCC 6538 assessed as biofilm formation at 0.5 times antibacterial MIC incubated for 24 hrs compound added prior to bacterial biofilm formation by total biomass crystal violet staining-based method relative to control; assay type: functional
[30] = test system: Pseudomonas aeruginosa; assay: Biofilm degradation activity against Pseudomonas aeruginosa ATCC 9027 assessed as biofilm formation at antibacterial MIC incubated for 24 hrs compound added post-biofilm formation by total biomass crystal violet staining-based method; assay type: functional
[31] = test system: Pseudomonas aeruginosa; assay: Biofilm degradation activity against Pseudomonas aeruginosa ATCC 9027 assessed as biofilm formation at 2 times antibacterial MIC incubated for 24 hrs compound added post-biofilm formation by total biomass crystal violet staining-based method; assay type: functional
[32] = test system: Pseudomonas aeruginosa; assay: Biofilm degradation activity against Pseudomonas aeruginosa ATCC 9027 assessed as biofilm formation at 4 times antibacterial MIC incubated for 24 hrs compound added post-biofilm formation by total biomass crystal violet staining-based method; assay type: functional
[33] = test system: Staphylococcus aureus; assay: Biofilm degradation activity against Staphylococcus aureus ATCC 6538 assessed as biofilm formation at antibacterial MIC incubated for 24 hrs compound added post-biofilm formation by total biomass crystal violet staining-based method; assay type: functional
[34] = test system: Staphylococcus aureus; assay: Biofilm degradation activity against Staphylococcus aureus ATCC 6538 assessed as biofilm formation at 2 times antibacterial MIC incubated for 24 hrs compound added post-biofilm formation by total biomass crystal violet staining-based method; assay type: functional
[35] = test system: Staphylococcus aureus; assay: Biofilm degradation activity against Staphylococcus aureus ATCC 6538 assessed as biofilm formation at 4 times antibacterial MIC incubated for 24 hrs compound added post-biofilm formation by total biomass crystal violet staining-based method; assay type: functional

Row | Structure (SMILES) | log K [1] | MIC [2] | MBC [3] | MIC [4] | MBC [5] | MIC [6] | MBC [7] | MIC [8] | MBC [9] | MIC [10] | MBC [11] | MIC [12] | MBC [13] | MIC [14] | MBC [15] | MIC [16] | MBC [17] | MIC [18] | MBC [19] | MIC [20] | further results
1 | CCn1cc(C(=O)O)c(=O)c2cc(F)c(N3CCNCC3)nc21 [ENOXACIN] | 0.1564 | 1 µg/mL (≈ 3.12 µM) | 1 µg/mL (≈ 3.12 µM) | 1 µg/mL (≈ 3.12 µM) | 1 µg/mL (≈ 3.12 µM) | 0.5 µg/mL (≈ 1.56 µM) | 2 µg/mL (≈ 6.24 µM) | 64 µg/mL (≈ 200 µM) | 64 µg/mL (≈ 200 µM) | 0.125 µg/mL (≈ 0.39 µM) | 0.125 µg/mL (≈ 0.39 µM) | 0.25 µg/mL (≈ 0.78 µM) | 0.5 µg/mL (≈ 1.56 µM) | 0.5 µg/mL (≈ 1.56 µM) | 0.5 µg/mL (≈ 1.56 µM) | 0.032 µg/mL (≈ 0.0999 µM) | 0.063 µg/mL (≈ 0.197 µM) | 0.5 µg/mL (≈ 1.56 µM) | 1 µg/mL (≈ 3.12 µM) | 0.25 µg/mL (≈ 0.78 µM) | MBC [21]: 0.25 µg/mL (≈ 0.78 µM); MIC [22]: 32 µg/mL (≈ 99.9 µM); MBC [23]: > 512 µg/mL; MIC [24]: 0.25 µg/mL (≈ 0.78 µM); MBC [25]: 0.25 µg/mL (≈ 0.78 µM); Activity [26]: 7%; Activity [27]: 29%; Activity [28]: 27%; Activity [29]: 27%; Activity [30]: 46%; Activity [31]: 49%; Activity [32]: 49%; Activity [33]: 45%; Activity [34]: 28%; Activity [35]: 8%
2 | CCn1cc(C(=O)O)c(=O)c2cc(F)c(N3CCNC(C)C3)c(F)c21 (stereo not given) [LOMEFLOXACIN] | 0.0766 | 1 µg/mL (≈ 2.85 µM) | 1 µg/mL (≈ 2.85 µM) | 0.5 µg/mL (≈ 1.42 µM) | 1 µg/mL (≈ 2.85 µM) | 1 µg/mL (≈ 2.85 µM) | 2 µg/mL (≈ 5.69 µM) | 128 µg/mL (≈ 364 µM) | 128 µg/mL (≈ 364 µM) | 0.125 µg/mL (≈ 0.356 µM) | 0.125 µg/mL (≈ 0.356 µM) | 0.063 µg/mL (≈ 0.179 µM) | 0.125 µg/mL (≈ 0.356 µM) | 1 µg/mL (≈ 2.85 µM) | 1 µg/mL (≈ 2.85 µM) | 0.008 µg/mL (≈ 0.0228 µM) | 0.008 µg/mL (≈ 0.0228 µM) | 0.5 µg/mL (≈ 1.42 µM) | 1 µg/mL (≈ 2.85 µM) | 0.25 µg/mL (≈ 0.712 µM) | MBC [21]: 0.25 µg/mL (≈ 0.712 µM); MIC [22]: 16 µg/mL (≈ 45.5 µM); MBC [23]: > 512 µg/mL; MIC [24]: 0.5 µg/mL (≈ 1.42 µM); MBC [25]: 0.5 µg/mL (≈ 1.42 µM); Activity [26]: 2%; Activity [27]: 9%; Activity [28]: 6%; Activity [29]: 63%; Activity [30]: 40%; Activity [31]: 36%; Activity [32]: 34%; Activity [33]: 58%; Activity [34]: 12%; Activity [35]: 6%
